Four compounds from patent publication US20230111310A1, “CARBOXYLIC ACID DERIVATIVE-SUBSTITUTED IMINO ARYL COMPOUND, PREPARATION METHOD THEREFOR, HERBICIDAL COMPOSITION AND USE THEREOF” (Qingdao Kingagroot Chemical Compound Co., Ltd., priority 2020, published 2023) can be followed below.

What all share (format): in vivo
Data set [1] concerns Leptochloa chinensis. As to the kind of experiment: Weed control effect evaluation in rice field. The settings on record: rice field pot, 30 g/ha, 14 days after treatment. An excerpt:
(§1) The activity level criteria for plant damage (i.e., growth control rate) are as follows:
(§2) Rice field soil was loaded into a 1/1,000,000 ha pot. The seeds of Echinochloa crusgalli. Scirpus juncoides. Bidens tripartita L., Monochoria vaginalis, and Leptochloa chinensis were sowed and gently covered with soil, then left to stand still in greenhouse in the state of 0.5-1 cm of water storage. The tuber of Sagittaria trifolia was planted in the next day or 2 days later. It was kept at 3-4 cm of water storage thereafter. The weeds were treated by dripping the WP or SC water diluents prepared according to the common preparation method of the compounds of the present invention with pipette homogeneously to achieve specified effective amount when Echinochloa crusgalli. Scirpus juncoides, Bidens tripartita L., Monochoria vaginalis, and Leptochloa chinensis reached 0.5 leaf stage and Sagittaria trifolia reached the time point of primary leaf stage.
(§3) The fertility condition of Echinochloa crusgalli. Scirpus juncoides. Bidens tripartita L., Monochoria vaginalis, Leptochloa chinensis and Sagittaria trifolia 14 days after the treatment of the compound of the invention and the fertility condition of rice 21 days after the treatment of the compound of the invention respectively with the naked eye. Evaluate the weed control effect with the above activity standard level. Many compounds show excellent activity and selectivity.

The subject of data set [2] is Monochoria vaginalis. As to the kind of experiment: Weed control effect evaluation in rice field. The settings on record: rice field pot, 30 g/ha, 14 days after treatment.
From the text: as §1, §2, §3

For data set [3], the system named is Scirpus juncoides. As to the kind of experiment: Weed control effect evaluation in rice field. The settings on record: rice field pot, 30 g/ha, 14 days after treatment.
From the text: as §1, §2, §3

Data set [4] has as its system Rice. As to the kind of experiment: Transplanted rice safety evaluation. The settings on record: transplanted japonica rice, 30 g/ha, 21 days after treatment. As to the method: as §1
In addition, the rice field soil that loaded into the 1/1,000,000 ha pot was leveled to keep water storage at 3-4 cm depth. The 5 leaf stage rice (japonica rice) was transplanted at 3 cm of transplanting depth the next day. The compound of the present invention was treated by the same way after 5 days of transplantation.
as §3

The test system of data set [5] is Malachium aquaticum. As to the kind of experiment: Composition activity test, post-emergence foliage spray. The settings on record: B 7.5 g a.i./ha. The protocol:
(§4) are as follows, and the others were purchased from reagent companies. The technical materials were all dissolved in acetone and diluted with an aqueous solution containing 0.1% emulsifier Tween-80. The dilution is performed as required.
(§5) Weeds were cultivated by a pot culture method. […] Full and uniform weed seeds were selected, soaked in warm water at 25° C. for 6 hours, and germinated in a 28° C. biochemical incubator (darkness). The weed seeds that had just germinated were evenly placed on the surface of the soil and then covered with 0.5-1 cm soil according to the sizes of seeds.
(§6) The culture was carried out in a controllable sunlight greenhouse at 20 to 30° C., in natural light, and relative humidity of 57% to 72%.
(§7) 3 pots with 20 weed seeds per pot were treated in one treatment with 4 replications per treatment.
(§8) The agents were used for only once in the experiment. In the stage of weeds with 1.5-2 leaves, the weeds were thinned out to maintain 10 weeds per pot and 30 weeds for each treatment, then continued to be cultured to Conyza Canadensis 10 cm in height, other weeds 3-4 leaves stage and treated.
(§9) The well-cultured weeds were evenly placed on a platform with an area of 0.5 m^2, and a solution of agents was sprayed on the stems and leaves thereof by the 3WP-2000-type walking spray tower at a dosage of 450 kg/ha and at a spray pressure of 0.3 MPa. After all the solution was sprayed, the valve was closed. After 30 seconds, the door of the spray tower was opened, and the nutritional bowl was taken out. Then the valve was opened, and the spray tube was cleaned by spraying 50 ml of water. After the treatment, the weeds were routinely cultured in a greenhouse.
(§10) A method for investigating absolute number was employed, wherein whole seedlings of survival weeds were cut off with a blade along the soil surface, and the fresh weight of the weeds was weighed with an analytical balance. For dead weeds, the fresh weight thereof was zero.
(§11) The investigation was performed after 21 days of the treatment for only once.
(§12) An optimum ratio of the two active ingredients was determined by the actual control effect, characteristics of herbicides, and balance of a corresponding formula. Wherein, in the formula, X represented the fresh weight inhibition rate of the active ingredient A in a dosage of P, and Y represented the fresh weight inhibition rate of the active ingredient B in a dosage of Q. The statistical results were shown in the table 6.

The subject of data set [6] is Echinochloa caudata Roshev. The description is as above. The protocol:
as §4, §5, §6, §7, §8, §9, §10, §11, §12

In data set [7] the test system is Abutilon theophrasti. In words: Weeding effect in post-emergence stage. The settings on record: level of fresh weight growth control rate. The procedure, abridged: (§13)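 Seeds are sown in soil-filled pots under 0.5-2 cm soil and grown 2 weeks in greenhouse. Plants at 2-3 leaves are sprayed with compound (acetone, Tween 80, 1.5 liter/ha methyl oleate EC, water) at 7.5 to 500 g/ha. Damage is rated 3 weeks later, averaging three repeats.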

Data set [8] concerns Alopecurus japonicus. In words: Weeding effect in post-emergence stage. The settings on record: level of fresh weight growth control rate. The procedure, abridged: as §13
Data set [9] relates to Digitaria sanguinalis. As to the kind of experiment: Weeding effect in post-emergence stage. The settings on record: level of fresh weight growth control rate. The procedure, abridged:
as §13

The test system of data set [10] is Eleusine indica. As to the kind of experiment: Weeding effect in post-emergence stage. The settings on record: for Weeding effect in post-emergence stage, Eleusine indica: level of fresh weight growth control rate. The essentials: as §13
The test system of data set [11] is Setaria viridis. In words: Weeding effect in post-emergence stage. The settings on record: level of fresh weight growth control rate. The procedure, abridged:
as §13

For data set [12], the system named is Amaranthus retroflexus. In words: Weeding effect in post-emergence stage. The settings on record: 7.5 g/ha, 3 weeks. The essentials: as §13
For data set [13], the system named is Echinochloa crusgalli. In words: Weeding effect in post-emergence stage. The settings on record: for Weeding effect in post-emergence stage, Echinochloa crusgalli: level of fresh weight growth control rate. The essentials: as §13
Data set [14] relates to Abutilon theophrasti. In words: Weeding effect in pre-emergence stage. The settings on record: 4 weeks. The essentials: (§14)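 Test compounds were dissolved in acetone with tween 80, diluted with water and sprayed right after sowing, with seeds covered by 0.5-2 cm of soil. Rates were 500 to 7.5 g/ha. Growth control was scored against activity-level criteria after 4 weeks in the greenhouse.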

In data set [15] the test system is Amaranthus retroflexus. As to the kind of experiment: Weeding effect in pre-emergence stage. The settings on record: 4 weeks. The procedure, abridged:
as §14

The subject of data set [16] is Capsella bursa-pastoris. In words: Weeding effect in pre-emergence stage. The settings on record: 4 weeks. The essentials: as §14
Data set [17] has as its system Descurainia sophia. As to the kind of experiment: Weeding effect in pre-emergence stage. The settings on record: 4 weeks. The procedure, abridged: as §14
For data set [18], the system named is Setaria viridis. As to the kind of experiment: Weeding effect in pre-emergence stage. The settings on record: 4 weeks. The essentials: as §14
The subject of data set [19] is Veronica didyma Tenore. In words: Weeding effect in pre-emergence stage. The settings on record: 4 weeks. The procedure, abridged: as §14
Data set [20] concerns Peanut. As to the kind of experiment: Pre-emergence stage, crop selectivity. The settings on record: 4 weeks. The essentials: as §14
Data set [21] relates to Soybeans. As to the kind of experiment: Pre-emergence stage, crop selectivity. The settings on record: 4 weeks. The procedure, abridged:
as §14

In data set [22] the test system is corn. As to the kind of experiment: Pre-emergence stage, crop selectivity. The settings on record: 4 weeks. The procedure, abridged:
as §14

For data set [23], the system named is cotton. As to the kind of experiment: Pre-emergence stage, crop selectivity. The settings on record: 4 weeks. The essentials: as §14
Where [24] appears, read: post-emergence, 7.5 g/ha, 3 weeks.

SMILES strings stand for the structures.

On to `CCOC(=O)c1cnn(C)c1S(=O)(=O)NC(=O)Nc1nc(OC)cc(OC)n1` [pyrazosulfuron-ethyl, reference compound], for which the “activity level (weed control effect) Leptochloa chinensis” value in data set [1] was 2 (Level 2: growth control rate is greater than or equal to 20% and less than 40%). Moreover, the “activity level (weed control effect) Monochoria vaginalis” value in data set [2] is 2 (Level 2: growth control rate is greater than or equal to 20% and less than 40%). Further, the “activity level (weed control effect) Scirpus juncoides” value in data set [3] is 1 (Level 1: growth control rate is greater than or equal to 5% and less than 20%). Further, the “plant damage level Rice” value in data set [4] is 1 (Level 1: growth control rate is greater than or equal to 5% and less than 20%). In addition, the “Control effect (%) of B applied alone (B)” value (“Control effect (%)” below) in data set [5] is given as 35.7%.

Consider `Cn1[nH]c(C2CC2)c(C(=O)c2ccc(C(F)(F)F)c(N3CCCCC3=O)c2Cl)c1=O` [huanbifucaotong], for which the “Control effect (%)” value in data set [6] (B 60 g a.i./ha) stood at 27.4%.

`CS(=O)(=O)c1ccc(C(=O)C2C(=O)CCCC2=O)c(Cl)c1COCC(F)(F)F` [tembotrione]: the “Control effect (%)” value in data set [6] (B 15 g a.i./ha) is recorded as 31.7%.

For `COC(=O)[C@@H](C)O/N=C/c1cc(-n2c(=O)cc(C(F)(F)F)n(C)c2=O)c(F)cc1Cl` [194(R)], the “Weeding effect in post-emergence stage, Abutilon theophrasti” value in data set [7] (Dose 7.5 g/ha) and in data set [7] (Dose 15 g/ha) was 5 (Level 5: growth control rate is above 85%) in each case. The “Weeding effect in post-emergence stage, Alopecurus japonicus” value in data set [8] (Dose 7.5 g/ha) and in data set [8] (Dose 15 g/ha) was 5 (Level 5: growth control rate is above 85%) in each case. The “Weeding effect in post-emergence stage, Digitaria sanguinalis” value in data set [9] (Dose 7.5 g/ha) and in data set [9] (Dose 15 g/ha) was 5 (Level 5: growth control rate is above 85%) in each case. Further, the “Weeding effect in post-emergence stage, Eleusine indica” value in data set [10] (Dose 7.5 g/ha) and in [10] (Dose 15 g/ha) was 5 (Level 5: growth control rate is above 85%) each time. Moreover, the “activity level (growth control rate) Eleusine indica” value in [10] (setting [24]) is reported as 5 (Level 5: growth control rate is above 85%). Also, the “Weeding effect in post-emergence stage, Setaria viridis” value in [11] (Dose 7.5 g/ha) and in data set [11] (Dose 15 g/ha) was 5 (Level 5: growth control rate is above 85%) throughout. Further, the “activity level (growth control rate) Amaranthus retroflexus” value in data set [12], in data set [15] (15 g/ha), in [15] (30 g/ha) and in data set [15] (60 g/ha) was 5 (Level 5: growth control rate is above 85%) throughout. Moreover, the “Weeding effect in post-emergence stage, Echinochloa crusgalli” value in data set [13] (Dose 7.5 g/ha) and in data set [13] (Dose 15 g/ha) was 5 (Level 5: growth control rate is above 85%) throughout. In [13] (setting [24]), the “activity level (growth control rate) Echinochloa crusgalli” value is reported as 5 (Level 5: growth control rate is above 85%). Further, the “activity level (growth control rate) Abutilon theophrasti” value in [14] (15 g/ha), in data set [14] (30 g/ha) and in data set [14] (60 g/ha) was 5 (Level 5: growth control rate is above 85%) each time. Moreover, the “activity level (growth control rate) Capsella bursa-pastoris” value in data set [16] (15 g/ha), in [16] (30 g/ha) and in [16] (60 g/ha) was 5 (Level 5: growth control rate is above 85%) each time. The “activity level (growth control rate) Descurainia sophia” value in [17] (15 g/ha), in data set [17] (30 g/ha) and in data set [17] (60 g/ha) was 5 (Level 5: growth control rate is above 85%) each time. In addition, the “activity level (growth control rate) Setaria viridis” value in data set [18] (15 g/ha), in data set [18] (30 g/ha) and in data set [18] (60 g/ha) was 5 (Level 5: growth control rate is above 85%) each time. For the same compound, the “activity level (growth control rate) Veronica didyma Tenore” value in data set [19] (15 g/ha), in data set [19] (30 g/ha) and in data set [19] (60 g/ha) was 5 (Level 5: growth control rate is above 85%) each time. Further, the “plant damage level Peanut” value in [20] (15 g/ha), in [20] (30 g/ha) and in data set [20] (60 g/ha) was 0 (Level 0: growth control rate is less than 5%) throughout. Besides, the “plant damage level Soybeans” value in data set [21] (15 g/ha), in [21] (30 g/ha) and in [21] (60 g/ha) was 0 (Level 0: growth control rate is less than 5%) each time. Besides, the “plant damage level Corn” value in data set [22] (15 g/ha), in data set [22] (30 g/ha) and in data set [22] (60 g/ha) was 0 (Level 0: growth control rate is less than 5%) each time. For the same compound, the “plant damage level Cotton” value in data set [23] (15 g/ha), in [23] (30 g/ha) and in data set [23] (60 g/ha) was 0 (Level 0: growth control rate is less than 5%) throughout. In addition, the “activity level (weed control effect) Leptochloa chinensis” value in data set [1] was 5 (Level 5: growth control rate is above 85%). Further, in data set [2], the “activity level (weed control effect) Monochoria vaginalis” value is 5 (Level 5: growth control rate is above 85%). The “activity level (weed control effect) Scirpus juncoides” value in data set [3] was 5 (Level 5: growth control rate is above 85%). In addition, the “plant damage level Rice” value in data set [4] was 0 (Level 0: growth control rate is less than 5%).
